Data taken from patent US20030158250A1, “Agents correcting gene expression regulatory error” (priority 2000, published 2003).

Experiments:
Assay type in all cases: cell-based
COX2 mRNA = assay: RT-PCR of COX2 mRNA in monocytes; settings: human monocytes; for amplification of band ascribed to COX2 mRNA, stimulant alone: LPS or TPA alone, 4 hours, RT-PCR
Experimental: (§1) Four-hundred milliliters of blood was collected from a human normal individual donor. The collected blood was diluted 2-folds with PBS(−), overlaid on Ficoll-paque (manufactured by Pharmacia), and centrifuged at 500×g for 20 minutes. The peripheral blood mononuclear cells (PBMCs) in the intermediate layer was collected with a pipette, and washed with RPMI 1640 medium (manufactured by Bio Whittaker). The collected PBMCs was suspended in a storage solution of 90% FCS (manufactured by JRH Biosciences)/10% dimethyl sulfoxide, and stored in liquid nitrogen. During the experiment, these stored PBMCs were rapidly melted in water bath at 37° C., and washed with RPMI 1640 medium containing 10 μg/ml Dnase (manufactured by Calbiochem). Thereafter, the number of living cells was calculated by trypan blue staining method, and subjected to each experiment.
(§2) PBMCs were suspended in RPMI 1640 medium containing 5% human serum of blood type-AB, 0.1 mM nonessential amino acid, 1 mM sodium pyruvate, 2 mM L-glutamine (hereinabove manufactured by Bio Whittaker), 10 mM HEPES (manufactured by nakalai tesque), and 1% streptomycin-penicillin (manufactured by Gibco BRL) (hereinafter simply referred to as “5HRPMI medium”) so as to have a concentration of 4×10^6 cells/ml. Thereafter, the suspension was spread on a 6-well cell culture plate (manufactured by Falcon) in a volume of 3 ml/well, and the cells were incubated in a wet-type incubator at 37° C. and 5% CO2 for 1.5 hours. After 1.5 hours, the non-adherent cells were removed by suction, and each well was washed with RPMI 1640 medium, and 2 ml of the 5HRPMI medium was added to the wells, to give monocytes.
(§3) To the monocytes obtained above was added in each well 8 μl of an aqueous DGE solution, or 8 μl of water as a control, and the cells were incubated in a wet-type incubator at 37° C. and 5% CO2 for 5 hours. Thereafter, with addition of 2 μl of a 1 μg/ml aqueous LPS solution or 2 μl of a 25 μM TPA dimethyl sulfoxide solution to each well, or with addition of neither of these substances thereto, the cells were cultured for additional 4 hours. Thereafter, RNA was prepared from each cell in accordance with the description of the kit using RNeasy Mini Kit (manufactured by QIAGEN, 74104). The group with addition of water alone or the aqueous DGE solution alone to the cells was set as a negative control, and the group with addition of water and the aqueous LPS solution or the aqueous TPA solution to the cells was set as a positive control. […]

MIP1α mRNA = assay: RT-PCR of MIP1α mRNA in monocytes; settings: human monocytes; for amplification of band ascribed to MIP1α mRNA, stimulant alone: LPS or TPA alone, 4 hours, RT-PCR
Experimental: as §1, §2, §3

interleukin-1β (IL-1β) = assay: RT-PCR expression level of IL-1β gene in monocytes; settings: human monocytes, 30 PCR cycles
Experimental: as §1, §2
(§4) To the monocytes obtained above was added in each well 8 μl of an aqueous DGE solution, or 8 μl of water as a control, and the cells were incubated in a wet-type incubator at 37° C. and 5% CO2 for 5 hours. Thereafter, with addition of 2 μl of a 1 μg/ml aqueous LPS solution or 2 μl of a 25 μM TPA dimethyl sulfoxide solution to each well, or with addition of neither of these substances thereto, the cells were cultured for additional 4 hours. Thereafter, RNA was prepared from each cell in accordance with the description of the kit using RNeasy Mini Kit (manufactured by QIAGEN, 74104). The group with addition of water alone or the aqueous DGE solution alone to the cells was set as a negative control, and the group with addition of water and the aqueous LPS solution or the aqueous TPA solution to the cells was set as a positive control.
(§5) A liquid mixture having a total volume of 60 μl of 0.5 μg of RNA prepared above, 10 mM Tris-HCl (pH 8.3), 50 mM KCl, 5 mM MgCl2, 1 mM dNTP mixtures, 150 pmol of Random 6 mers, 60 U Ribonuclease Inhibitor (manufactured by Takara Shuzo Co., Ltd., 2310A), and 15 U Reverse Transcriptase XL (AMV) (manufactured by Takara Shuzo Co., Ltd., 2620A) were incubated at 30° C. for 10 minutes and thereafter at 42° C. for 1 hour using a thermal cycler (GeneAmp PCR System 9600, manufactured by Applied Biosystems), and the mixture was heated at 99° C. for 5 minutes to deactivate the enzyme, to give cDNA.
(§6) Oligonucleotide primers for reaction of PCR were designed based on mRNA nucleotide sequence of each gene listed in the following tables, and synthesized in the same manner as above. In Tables 4 and 5, each gene evaluated in this Example, GenBank Accession NO, the name of oligonucleotide primers and SEQ ID NOs of the primers in Sequence Listing were listed. […]

[1] = tested on: tumor necrosis factor α (TNFα); assay: RT-PCR expression level of TNFα gene in monocytes; settings: human monocytes, 30 PCR cycles
Experimental: as §1, §2, §4, §5, §6

[2] = tested on: interleukin-7 receptor (IL-7r); assay: RT-PCR expression level of IL-7r gene in monocytes; settings: human monocytes, 30 PCR cycles
Experimental: as §1, §2, §4, §5, §6

[3] = tested on: macrophage inflammatory protein-1-β (MIP1β); assay: RT-PCR expression level of MIP1β gene in monocytes; settings: human monocytes, 30 PCR cycles
Experimental: as §1, §2, §4, §5, §6

[4] = tested on: macrophage inflammatory protein-2-β (MIP2β); assay: RT-PCR expression level of MIP2β gene in monocytes; settings: human monocytes, 30 PCR cycles
Experimental: as §1, §2, §4, §5, §6

[5] = tested on: matrix metalloproteinase-9 (MMP-9); assay: RT-PCR expression level of MMP-9 gene in monocytes; settings: human monocytes, 30 PCR cycles
Experimental: as §1, §2, §4, §5, §6

[6] = tested on: GABA(A) receptor-associated protein (GABArp); assay: RT-PCR expression level of GABArp gene in monocytes; settings: human monocytes, 30 PCR cycles
Experimental: as §1, §2, §4, §5, §6

[7] = tested on: properdin P factor, complement (PFC); assay: RT-PCR expression level of PFC gene in monocytes; settings: human monocytes, 35 PCR cycles
Experimental: as §1, §2, §4, §5, §6

[8] = tested on: myeloid leukemia cell differentiation protein-1 (MCL1); assay: RT-PCR expression level of MCL1 gene in monocytes; settings: human monocytes, 30 PCR cycles
Experimental: as §1, §2, §4, §5, §6

[9] = substance added alone, Con. (water) +
[10] = substance added alone, Con. (water) +/−
[11] = substance added alone, Con. (water) −
[12] = DGE 5 hours, then LPS 4 hours, RT-PCR band
[13] = DGE 5 hours, then TPA 4 hours, RT-PCR band
[14] = L + D: DGE and LPS, LPS alone +++
[15] = T + D: DGE and TPA, TPA alone ++
[16] = L + D: DGE and LPS, LPS alone ++
[17] = T + D: DGE and TPA, TPA alone +
[18] = L + D: DGE and LPS, LPS alone −
[19] = L + D: DGE and LPS, LPS alone +/−

Compound: lipopolysaccharide [LPS, reference compound]
- amplification of band ascribed to COX2 mRNA, stimulant alone (COX2 mRNA): induction
- amplification of band ascribed to MIP1α mRNA, stimulant alone (MIP1α mRNA): induction
- expression level of IL-1β gene (interleukin-1β (IL-1β); [9]): +++
- expression level of TNFα gene [1, 10]: ++
- expression level of IL-7r gene [2, 10]: ++
- expression level of MIP1β gene [3, 9]: +++
- expression level of MIP2β gene [4, 9]: ++
- expression level of MMP-9 gene [5, 11]: −
- expression level of GABArp gene [6, 9]: +/−
- expression level of PFC gene [7, 9]: −
- expression level of MCL1 gene [8, 9]: +/−

Compound: 12-o-tetradecanoylphorbol 13-acetate [TPA, reference compound]
- amplification of band ascribed to COX2 mRNA, stimulant alone (COX2 mRNA): induction
- amplification of band ascribed to MIP1α mRNA, stimulant alone (MIP1α mRNA): induction
- expression level of IL-1β gene (interleukin-1β (IL-1β); [9]): ++
- expression level of TNFα gene [1, 10]: +
- expression level of IL-7r gene [2, 10]: −
- expression level of MIP1β gene [3, 9]: ++
- expression level of MIP2β gene [4, 9]: ++
- expression level of MMP-9 gene [5, 11]: +
- expression level of GABArp gene [6, 9]: +
- expression level of PFC gene [7, 9]: +
- expression level of MCL1 gene [8, 9]: +

Compound: O=C1C=CC(CO)OC1O [DGE, L-glycero-1,5-epoxy-1αβ,6-dihydroxy-cis-hex-3-en-2-one]
- induction of COX2 mRNA by LPS, effect of DGE (COX2 mRNA; [12]): inhibited
- induction of COX2 mRNA by TPA, effect of DGE (COX2 mRNA; [13]): inhibited
- induction of MIP1α mRNA by LPS, effect of DGE (MIP1α mRNA; [12]): inhibited
- induction of MIP1α mRNA by TPA, effect of DGE (MIP1α mRNA; [13]): inhibited
- expression level of IL-1β gene (interleukin-1β (IL-1β); [14]): +
- expression level of IL-1β gene (interleukin-1β (IL-1β); [15]): +
- expression level of IL-1β gene (interleukin-1β (IL-1β); [9]): +
- expression level of TNFα gene [1, 16]: +/−
- expression level of TNFα gene [1, 17]: +/−
- expression level of TNFα gene [1, 10]: −
- expression level of IL-7r gene [2, 16]: −
- expression level of IL-7r gene ([2]; T + D: DGE and TPA, TPA alone −): −
- expression level of IL-7r gene [2, 10]: −
- expression level of MIP1β gene [3, 14]: +/−
- expression level of MIP1β gene [3, 15]: +/−
- expression level of MIP1β gene [3, 9]: +/−
- expression level of MIP2β gene [4, 16]: +
- expression level of MIP2β gene [4, 15]: +
- expression level of MIP2β gene [4, 9]: +
- expression level of MMP-9 gene [5, 18]: −
- expression level of MMP-9 gene [5, 17]: −
- expression level of MMP-9 gene [5, 11]: −
- expression level of GABArp gene [6, 19]: +
- expression level of GABArp gene [6, 17]: +
- expression level of GABArp gene [6, 9]: +
- expression level of PFC gene [7, 18]: +
- expression level of PFC gene [7, 17]: +
- expression level of PFC gene [7, 9]: +
- expression level of MCL1 gene [8, 19]: +
- expression level of MCL1 gene [8, 17]: +
- expression level of MCL1 gene [8, 9]: +
